In PubChem BioAssay (NCI):
Several values for one entry are separate records, joined by “and”; a condition that tells them apart may be missing. Equal entries are not always repeated.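 Tested at 5 concentrations; 48 h exposure; 96-well plates; endpoints linearly interpolated, else capped at highest concentration. Abbreviation: GI50, concentration required for 50% inhibition of growth. TGI is the concentration that stops growth completely.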

Columns and labels:
Assay in all cases: growth of human tumour cells (NCI), 48 h
786-0 renal = test system: 786-0 renal
DU-145 prostate = test system: DU-145 prostate
HOP-92 NSCLC = test system: HOP-92 NSCLC
SNB-19 CNS = test system: SNB-19 CNS
SK-OV-3 ovarian = test system: SK-OV-3 ovarian
SNB-75 CNS = test system: SNB-75 CNS
NCI/ADR-RES ovarian = test system: NCI/ADR-RES ovarian
A549 NSCLC = test system: A549 NSCLC
HCC-2998 colon = test system: HCC-2998 colon
SR leukemia = test system: SR leukemia

CCOC(=O)C(/C=N/C(N)=S)=C(/O)c1ccccc1
TGI (786-0 renal): > 100 µM | TGI (DU-145 prostate): > 100 µM | TGI (HOP-92 NSCLC): > 100 µM | TGI (SNB-19 CNS): > 100 µM | TGI (SK-OV-3 ovarian): > 100 µM | TGI (SNB-75 CNS): > 100 µM | TGI (NCI/ADR-RES ovarian): > 100 µM | TGI (A549 NSCLC): > 100 µM | TGI (HCC-2998 colon): > 100 µM

Cc1ccc(S(=O)(=O)N/N=C2/C3CC4CCC2C4C3)cc1 (stereo not drawn)
TGI (786-0 renal): > 100 µM | TGI (DU-145 prostate): > 100 µM | TGI (HOP-92 NSCLC): > 100 µM | TGI (SK-OV-3 ovarian): > 100 µM | TGI (SNB-75 CNS): > 100 µM | TGI (NCI/ADR-RES ovarian): > 100 µM | TGI (A549 NSCLC): > 100 µM | TGI (HCC-2998 colon): > 100 µM

O=CC1C(=O)Nc2nc3ccccc3n2C1c1ccccc1 (stereo not drawn)
TGI (786-0 renal): 24.9 µM | TGI (DU-145 prostate): 25.3 µM | TGI (HOP-92 NSCLC): 31.3 µM | TGI (SNB-75 CNS): 22.3 µM | TGI (NCI/ADR-RES ovarian): > 100 µM | TGI (A549 NSCLC): 95.4 µM

Cc1cc(NS(=O)(=O)c2ccc(N=Nc3c(Nc4ccccc4)nn(-c4ccc(S(=O)(=O)Nc5ccncn5)cc4)c3C)cc2)no1
TGI (786-0 renal): > 100 µM | TGI (DU-145 prostate): > 100 µM | TGI (HOP-92 NSCLC): > 100 µM | TGI (SNB-19 CNS): > 100 µM | TGI (SK-OV-3 ovarian): > 100 µM | TGI (SNB-75 CNS): > 100 µM | TGI (NCI/ADR-RES ovarian): > 100 µM | TGI (A549 NSCLC): > 100 µM | TGI (HCC-2998 colon): > 100 µM

COC(=O)Cc1c(-c2c(CC(=O)OC)c3ccccc3n2C2OC(COC3OC(COC(C)=O)C(OC(C)=O)C(OC(C)=O)C3OC(C)=O)C(O)C(O)C2O)[nH]c2ccccc12 (stereo not drawn)
TGI (SR leukemia): > 100 µM | TGI (786-0 renal): > 100 µM | TGI (DU-145 prostate): > 100 µM | TGI (HOP-92 NSCLC): > 100 µM | TGI (SNB-19 CNS): 60 µM | TGI (SK-OV-3 ovarian): > 100 µM | TGI (A549 NSCLC): > 100 µM

COC(=O)/C=C/[C@H]1[C@H](C)N1S(=O)(=O)c1ccc(C)cc1 (stereo partly drawn)
TGI (SR leukemia): > 100 µM | TGI (786-0 renal): > 100 µM | TGI (DU-145 prostate): > 100 µM | TGI (SNB-19 CNS): > 100 µM | TGI (SK-OV-3 ovarian): > 100 µM | TGI (NCI/ADR-RES ovarian): > 100 µM | TGI (A549 NSCLC): > 100 µM | TGI (HCC-2998 colon): > 100 µM

COc1ccc([C@H]2C=C(c3cc(F)c(Cl)cc3Cl)N=c3s/c(=C\c4ccc(-c5ccc(Cl)cc5Cl)o4)c(=O)n32)cc1
TGI (786-0 renal): > 100 µM | TGI (DU-145 prostate): > 100 µM | TGI (HOP-92 NSCLC): > 100 µM | TGI (SNB-19 CNS): > 100 µM | TGI (SK-OV-3 ovarian): 65.2 µM | TGI (SNB-75 CNS): > 100 µM | TGI (NCI/ADR-RES ovarian): > 100 µM | TGI (A549 NSCLC): > 100 µM | TGI (HCC-2998 colon): 47.8 µM

CSc1nc(NC2OC(CO)C(O)C(O)C2O)c(N)c(=O)[nH]1 (stereo not drawn)
TGI (HOP-92 NSCLC): > 100 µM | TGI (SNB-19 CNS): > 100 µM | TGI (SK-OV-3 ovarian): > 100 µM | TGI (SNB-75 CNS): > 100 µM | TGI (NCI/ADR-RES ovarian): > 100 µM | TGI (A549 NSCLC): > 100 µM | TGI (HCC-2998 colon): > 100 µM

O=C(O)Cc1ccc(-n2nnc3c(=O)[nH][nH]c(=O)c32)cc1
TGI (SR leukemia): > 100 µM | TGI (786-0 renal): > 100 µM | TGI (DU-145 prostate): > 100 µM | TGI (HOP-92 NSCLC): > 100 µM | TGI (SNB-19 CNS): > 100 µM | TGI (NCI/ADR-RES ovarian): > 100 µM | TGI (A549 NSCLC): > 100 µM | TGI (HCC-2998 colon): > 100 µM

COC(=O)C(Cc1cc(OC)c(OC)c(OC)c1)(NC(=O)c1ccccc1)P(=O)(OC)OC (stereo not drawn)
TGI (SR leukemia): > 100 µM | TGI (HOP-92 NSCLC): > 100 µM | TGI (SNB-19 CNS): > 100 µM | TGI (SK-OV-3 ovarian): > 100 µM | TGI (SNB-75 CNS): > 100 µM | TGI (A549 NSCLC): > 100 µM | TGI (HCC-2998 colon): > 100 µM

CC(C)(C)OC(=O)/C=C/[C@@H](CCC(=O)/C=C/[C@H](/C=C\CCCC(=O)O)NC1(c2ccccc2)c2ccccc2-c2ccccc21)O[Si](C)(C)C(C)(C)C
TGI (SR leukemia): > 100 µM | TGI (786-0 renal): 33.3 µM | TGI (DU-145 prostate): 32.6 µM | TGI (HOP-92 NSCLC): 16 µM | TGI (SNB-19 CNS): 41.8 µM | TGI (SK-OV-3 ovarian): > 100 µM | TGI (NCI/ADR-RES ovarian): 32.6 µM | TGI (A549 NSCLC): 37.2 µM | TGI (HCC-2998 colon): 32.5 µM

COc1ccc(Nc2cnc3cc(N)ccc3n2)cc1OC
TGI (SR leukemia): > 100 µM | TGI (HOP-92 NSCLC): 42.5 µM | TGI (SK-OV-3 ovarian): > 100 µM | TGI (SNB-75 CNS): > 100 µM | TGI (HCC-2998 colon): > 100 µM

COc1ccc(-c2c(C#N)c(N)n(C3OC(COC(C)=O)C(OC(C)=O)C(OC(C)=O)C3OC(C)=O)c(=S)c2C#N)cc1 (stereo not drawn)
TGI (786-0 renal): > 100 µM and 75.5 µM | GI50 (DU-145 prostate): 84.2 µM and 34 µM | TGI (DU-145 prostate): > 100 µM | TGI (HOP-92 NSCLC): 82.8 µM and 49.4 µM | TGI (SNB-19 CNS): > 100 µM | TGI (SK-OV-3 ovarian): 78.1 µM and 85 µM | TGI (SNB-75 CNS): 63.4 µM and 50.9 µM | TGI (NCI/ADR-RES ovarian): > 100 µM | GI50 (A549 NSCLC): 36.2 µM and > 100 µM | TGI (A549 NSCLC): > 100 µM | TGI (HCC-2998 colon): > 100 µM and 38.2 µM

Cc1nc2ccccc2n1Cc1ccc(NC(=S)NC2CCCCC2)cc1
TGI (786-0 renal): > 100 µM | TGI (DU-145 prostate): > 100 µM | TGI (HOP-92 NSCLC): > 100 µM | TGI (SNB-19 CNS): > 100 µM | TGI (SK-OV-3 ovarian): > 100 µM | TGI (SNB-75 CNS): > 84.7 µM | TGI (NCI/ADR-RES ovarian): > 100 µM | TGI (A549 NSCLC): > 100 µM | TGI (HCC-2998 colon): > 100 µM

O=C(Nc1ccccn1)c1cc2c(cc1Cl)Sc1nccn1S2(=O)=O
TGI (SR leukemia): > 100 µM | TGI (786-0 renal): > 100 µM | TGI (HOP-92 NSCLC): > 100 µM | TGI (SNB-19 CNS): > 100 µM | TGI (SK-OV-3 ovarian): > 100 µM | TGI (SNB-75 CNS): > 100 µM | TGI (NCI/ADR-RES ovarian): 85.6 µM | TGI (A549 NSCLC): > 100 µM | TGI (HCC-2998 colon): 30.9 µM

CCOC1=NC(C(F)(F)F)(C(F)(F)F)N=C(/N=C(/N)N(C)C(C(C)C)P(=O)(OC(C)C)OC(C)C)O1 (stereo not drawn)
TGI (SR leukemia): > 100 µM | TGI (786-0 renal): > 100 µM | TGI (DU-145 prostate): > 100 µM | TGI (SNB-19 CNS): > 100 µM | TGI (SK-OV-3 ovarian): > 100 µM | TGI (SNB-75 CNS): > 100 µM | TGI (NCI/ADR-RES ovarian): > 100 µM | TGI (A549 NSCLC): > 100 µM | TGI (HCC-2998 colon): > 100 µM

COc1ccc(-c2nc3ccccc3c(=O)[nH]2)cc1OC
TGI (SR leukemia): > 100 µM | TGI (786-0 renal): > 100 µM | TGI (DU-145 prostate): > 100 µM | TGI (SNB-19 CNS): 79 µM | TGI (SK-OV-3 ovarian): > 100 µM | TGI (SNB-75 CNS): 55.6 µM | TGI (NCI/ADR-RES ovarian): > 100 µM | TGI (A549 NSCLC): > 100 µM | TGI (HCC-2998 colon): > 100 µM

COc1ccccc1N1C(=O)/C(=C\c2ccccc2)SC1c1cc(OC)c(OC)c(OC)c1 (stereo not drawn)
TGI (SR leukemia): > 100 µM | TGI (786-0 renal): > 100 µM | TGI (HOP-92 NSCLC): > 100 µM | TGI (SNB-19 CNS): > 100 µM | TGI (SK-OV-3 ovarian): > 100 µM | TGI (NCI/ADR-RES ovarian): > 100 µM | TGI (A549 NSCLC): > 100 µM | TGI (HCC-2998 colon): > 100 µM

O=c1ccc2c(Cl)sc(Cl)c2[nH]1
TGI (786-0 renal): > 100 µM | TGI (DU-145 prostate): > 100 µM | TGI (SNB-19 CNS): > 100 µM | TGI (SK-OV-3 ovarian): > 100 µM | TGI (SNB-75 CNS): > 100 µM | TGI (NCI/ADR-RES ovarian): > 100 µM | TGI (A549 NSCLC): > 100 µM | TGI (HCC-2998 colon): > 100 µM

CC(=O)Nc1ccc2cc3c(nc2n1)c1cccnc1n3S(=O)(=O)c1ccccc1
TGI (SR leukemia): > 100 µM | TGI (786-0 renal): > 100 µM | TGI (HOP-92 NSCLC): > 100 µM | TGI (SNB-19 CNS): > 100 µM | TGI (SK-OV-3 ovarian): > 100 µM | TGI (SNB-75 CNS): > 100 µM | TGI (NCI/ADR-RES ovarian): > 100 µM | TGI (A549 NSCLC): > 100 µM | TGI (HCC-2998 colon): > 100 µM

O=c1[nH]nc(-c2ccccc2)c2[nH]c3c(c12)CCCc1ccccc1-3
TGI (SR leukemia): 69.9 µM | TGI (786-0 renal): 28 µM | TGI (DU-145 prostate): 57.8 µM | TGI (HOP-92 NSCLC): 54.8 µM | TGI (SNB-19 CNS): 26.8 µM | TGI (SK-OV-3 ovarian): > 100 µM | TGI (NCI/ADR-RES ovarian): 32.5 µM | TGI (A549 NSCLC): 25.6 µM | TGI (HCC-2998 colon): 28 µM

COC1=C2C[C@](OC)(C#CC=CC#CC2O)CC1(C)C (stereo partly drawn)
TGI (SR leukemia): > 100 µM | TGI (786-0 renal): > 100 µM | TGI (DU-145 prostate): > 100 µM | TGI (SNB-19 CNS): > 100 µM | TGI (SNB-75 CNS): > 100 µM | TGI (NCI/ADR-RES ovarian): > 100 µM | TGI (A549 NSCLC): > 100 µM | TGI (HCC-2998 colon): > 100 µM

O=[N+]([O-])c1cnccc1-n1nnc2ccccc21
TGI (HOP-92 NSCLC): > 71.1 µM | TGI (SNB-19 CNS): > 100 µM | TGI (SK-OV-3 ovarian): 56.6 µM | TGI (SNB-75 CNS): 54.1 µM | TGI (NCI/ADR-RES ovarian): 63.4 µM | TGI (A549 NSCLC): > 90.1 µM | TGI (HCC-2998 colon): 51.6 µM
